Measurements published in patent US20230077362A1 (CORTEVA AGRISCIENCE LLC, priority 2019, published 2023).
Like-named read-outs stand apart in the source and are kept apart here.

Assays:
[1] = test system: Beet Armyworm (Spodoptera exigua) ("BAW"), second instar larvae; test: Bioassay on beet armyworm (BAW), 128-well diet tray assay; format: in vivo; settings: for pest or weed control at 50 µg/cm2: Spodoptera exigua
In short: (§1)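 Read-out: percent larval mortality per well, averaged over 8 wells. Incubation 25° C., 14:10 L:D photoperiod, 5–7 days, trays sealed with clear adhesive cover.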

[2] = test system: Cabbage Looper (Trichoplusia ni) ("CL"), second instar larvae; test: Bioassay on cabbage looper (CL), 128-well diet tray assay; format: in vivo
In short: as §1

[3] = Trichoplusia ni, read-out: CL rating
[4] = read-out: BAW (Biological Results, rating)
[5] = Trichoplusia ni, read-out: CL (Biological Results, rating)

SMILES | pest or weed control at 50 µg/cm2 ([1]; read-out: BAW rating) | pest or weed control at 50 µg/cm2 [2, 3] | pest or weed control at 50 µg/cm2 [1, 4] | pest or weed control at 50 µg/cm2 [2, 5] | also measured
CC(C)c1ccc(N(C)C)cc1N1C(=O)CS/C1=N\C(=O)Nc1ccc(-c2nc(-c3ccc(OC(F)(F)F)cc3)no2)cc1F [Compound J435, (Z)-1-(3-(5-(dimethylamino)-2-isopropylphenyl)-4-oxothiazolidin-2-ylidene)-3-(2-fluoro-4-(3-(4-(trifluoromethoxy)phenyl)-1,2,4-oxadiazol-5-yl)phenyl)urea] | 50 to 100% | 50 to 100% | – | – | –
CC(C)c1cc(F)c(N(C)C)cc1N1C(=O)CS/C1=N\C(=O)Nc1ccc(-c2ncn(-c3ccc(SC(F)(F)F)cc3)n2)cc1 [Compound J389, (Z)-1-(3-(5-(Dimethylamino)-4-fluoro-2-isopropylphenyl)-4-oxothiazolidin-2-ylidene)-3-(4-(1-(4-((trifluoromethyl)thio)phenyl)-1H-1,2,4-triazol-3-yl)phenyl)urea] | 50 to 100% | 50 to 100% | – | – | –
COC(C)c1ccc(C)cc1N1C(=O)CS/C1=N\C(=O)Nc1ccc(-c2ncn(-c3ccc(C(F)(F)F)cn3)n2)cc1C (centres unmarked) [Compound J286, (Z)-1-(3-(2-(1-Methoxyethyl)-5-methylphenyl)-4-oxothiazolidin-2-ylidene)-3-(2-methyl-4-(1-(5-(trifluoromethyl)pyridin-2-yl)-1H-1,2,4-triazol-3-yl)phenyl)urea] | – | – | 50 to 100% | 50 to 100% | –
COc1ccc(-n2cnc(-c3ccc(NC(=O)/N=C4\SCC(=O)N4c4cc(C)ccc4COCC(F)(F)F)c(F)c3)n2)cc1 [Compound J754, (Z)-1-(2-Fluoro-4-(1-(4-methoxyphenyl)-1H-1,2,4-triazol-3-yl)phenyl)-3-(3-(5-methyl-2-((2,2,2-trifluoroethoxy)methyl)phenyl)-4-oxothiazolidin-2-ylidene)urea] | 50 to 100% | 50 to 100% | – | – | –
Cc1ccc(COCC(F)(F)F)c(N2C(=O)CS/C2=N\C(=O)Nc2ccc(-c3ncn(-c4ccc(C(F)(F)C(F)(F)F)cc4)n3)cc2F)c1 [Compound J793, (Z)-1-(2-Fluoro-4-(1-(4-(perfluoroethyl)phenyl)-1H-1,2,4-triazol-3-yl)phenyl)-3-(3-(5-methyl-2-((2,2,2-trifluoroethoxy)methyl)phenyl)-4-oxothiazolidin-2-ylidene)urea] | – | – | – | – | BAW rating (% control or mortality class) ([1]; Table ABC, species BAW, 128-well diet tray assay, second instar larvae): A (50-100); mortality at 50 µg/cm2 ([2]; Trichoplusia ni, Table ABC, species CL, 128-well diet tray assay, second instar larvae, read-out: CL rating (% control or mortality class)): 50 to 100%
Cc1ccc(OCC(F)(F)F)c(N2C(=O)CS/C2=N\C(=O)Nc2ccc(-c3ncn(-c4ccc(OC(F)(F)F)cc4)n3)cc2C(F)F)c1 [Compound J212, (Z)-1-(2-(Difluoromethyl)-4-(1-(4-(trifluoromethoxy)phenyl)-1H-1,2,4-triazol-3-yl)phenyl)-3-(3-(5-methyl-2-(2,2,2-trifluoroethoxy)phenyl)-4-oxothiazolidin-2-ylidene)urea] | – | – | 50 to 100% | 50 to 100% | –
CC(C)c1ccc(N(C)C)cc1N1C(=O)CS/C1=N\C(=O)Nc1ccc(-c2ncn(-c3ccc(C(F)(F)F)cn3)n2)cc1C(F)(F)F [Compound J302, (Z)-1-(3-(5-(Dimethylamino)-2-isopropylphenyl)-4-oxothiazolidin-2-ylidene)-3-(2-(trifluoromethyl)-4-(1-(5-(trifluoromethyl)pyridin-2-yl)-1H-1,2,4-triazol-3-yl)phenyl)urea] | – | – | 50 to 100% | 50 to 100% | –
Cc1ccc(OCCC(F)(F)F)c(N2C(=O)CS/C2=N\C(=O)Nc2ccc(-c3ncn(-c4ccc(OCC#N)cc4)n3)cc2C)c1 [Compound J360, (Z)-1-(4-(1-(4-(Cyanomethoxy)phenyl)-1H-1,2,4-triazol-3-yl)-2-methylphenyl)-3-(3-(5-methyl-2-(3,3,3-trifluoropropoxy)phenyl)-4-oxothiazolidin-2-ylidene)urea] | 50 to 100% | 50 to 100% | – | – | –
Cc1ccc(COCC(F)F)c(N2C(=O)CS/C2=N\C(=O)Nc2ccc(-n3cnc(-c4ccc(C(F)(F)F)cc4)n3)cc2F)c1 [Compound J701, (Z)-1-(3-(2-((2,2-Difluoroethoxy)methyl)-5-methylphenyl)-4-oxothiazolidin-2-ylidene)-3-(2-fluoro-4-(3-(4-(trifluoromethyl)phenyl)-1H-1,2,4-triazol-1-yl)phenyl)urea] | 50 to 100% | 50 to 100% | – | – | –
O=C(/N=C1\SCC(=O)N1c1ccccc1COCC(F)(F)F)Nc1ccc(-c2ncn(-c3ccc(C(F)(F)F)cc3)n2)cc1F [Compound J661] | – | – | – | – | BAW rating ([1]; Table ABC, species BAW, C = not tested, D = no activity noticed): A (50-100); CL rating ([2]; Table ABC, species CL, C = not tested, D = no activity noticed): A (50-100)
Cc1ccc(OCCC(F)(F)F)c(N2C(=O)CS/C2=N\C(=O)Nc2ccc(-c3ncn(-c4ccc(OC(F)(F)F)cn4)n3)cc2C)c1 [Compound J255, (Z)-1-(3-(5-Methyl-2-(3,3,3-trifluoropropoxy)phenyl)-4-oxothiazolidin-2-ylidene)-3-(2-methyl-4-(1-(5-(trifluoromethoxy)pyridin-2-yl)-1H-1,2,4-triazol-3-yl)phenyl)urea] | – | – | 50 to 100% | 50 to 100% | –
Cc1ccc(C(C)C)c(N2C(=O)CS/C2=N\C(=O)Nc2ccc(-c3ncn(-c4cccc(C(F)(F)F)c4)n3)cc2C)c1 [Compound J131, (Z)-1-(3-(2-Isopropyl-5-methylphenyl)-4-oxothiazolidin-2-ylidene)-3-(2-methyl-4-(1-(3-(trifluoromethyl)phenyl)-1H-1,2,4-triazol-3-yl)phenyl)urea] | – | – | 50 to 100% | 50 to 100% | –
CC(C)c1ccc(N(C)C)cc1N1C(=O)CS/C1=N\C(=O)Nc1ccc(-c2ncn(-c3ccc(OC(F)(F)F)cc3)n2)cc1C(F)F [Compound J213, (Z)-1-(2-(Difluoromethyl)-4-(1-(4-(trifluoromethoxy)phenyl)-1H-1,2,4-triazol-3-yl)phenyl)-3-(3-(5-(dimethylamino)-2-isopropylphenyl)-4-oxothiazolidin-2-ylidene)urea] | – | – | 50 to 100% | 50 to 100% | –
Cc1cc(COCC(F)(F)F)c(N2C(=O)CS/C2=N\C(=O)Nc2ccc(-c3ncn(-c4ccc(S(F)(F)(F)(F)F)cc4)n3)cc2C#N)cc1C [Compound J587, (Z)-1-(2-Cyano-4-(1-(4-(pentafluoro-λ^6-sulfaneyl)phenyl)-1H-1,2,4-triazol-3-yl)phenyl)-3-(3-(4,5-dimethyl-2-((2,2,2-trifluoroethoxy)methyl)phenyl)-4-oxothiazolidin-2-ylidene)urea] | 50 to 100% | 50 to 100% | – | – | –
CCCc1ccc(C)cc1N1C(=O)CS/C1=N\C(=O)Nc1ccc(-c2ncn(-c3ccc(OC(F)(F)F)cc3)n2)cc1C [Compound J53, (Z)-1-(3-(5-Methyl-2-propylphenyl)-4-oxothiazolidin-2-ylidene)-3-(2-methyl-4-(1-(4-(trifluoromethoxy)phenyl)-1H-1,2,4-triazol-3-yl)phenyl)urea] | – | – | 50 to 100% | 50 to 100% | –
Cc1ccc(COCC(F)(F)F)c(N2C(=O)CS/C2=N\C(=O)Nc2ccc(-c3ncn(-c4ccc(OC(F)(F)F)cc4)n3)cc2C#N)c1 [Compound J245, (Z)-1-(2-Cyano-4-(1-(4-(trifluoromethoxy)phenyl)-1H-1,2,4-triazol-3-yl)phenyl)-3-(3-(5-methyl-2-((2,2,2-trifluoroethoxy)methyl)phenyl)-4-oxothiazolidin-2-ylidene)urea] | – | – | 50 to 100% | 50 to 100% | –
